Columns and labels:
Gambusia affinis = experiment: Ichthyotoxicity against Gambusia affinis at 10 ppm within 24 hrs; assay type: organism-based; settings: in vivo
Artemia salina = experiment: Toxicity against Artemia salina; assay type: organism-based; settings: in vivo

## CC1=C[C@@H]2Cc3occc3C(C)(C)[C@@H]2C=C1
Gambusia affinis
  Activity: Toxic
Artemia salina
  LD50: 1.52 ppm
